From patent US6790862B2 (priority 1999, dated 2004) come the findings set out here.

Values after ≈ are worked out from the molar mass of the structure shown.

The subject of series [1] is H441 (human lung adenocarcinoma). In words: MTT cytotoxicity assay, 96 hours exposure. In kind it is cell-based. As to the method:
(§1) The cytotoxicity of Peloruside A was tested in five cell lines:
H441 (human lung adenocarcinoma)
(§2) 32D (murine myeloid) generally in accordance with the MTT assay of Burres et al., J. Cancer Research (1989), 49, 2935-2940.
(§3) Briefly, cell lines were maintained in Dulbecco's modified Eagle's medium: F12 medium (50:50) (Gibco) supplemented with 10% fetal calf serum (Gibco), […] Penicillin G, and […] streptomycin sulfate. After 96 hours exposure to the toxin, cell viability was determined by the MTT calorimetric assay. […] Data were analysed with the SYSTAT statistical program using a non-linear model fit, and IC50 values were calculated using a Logit-Log plot.

Series [2] can be described thus: lipophilicity by thin layer chromatography. In kind it is physicochemical.
The test system of another series is purified tubulin. Nature of the series: in vitro tubulin polymerization and electron microscopy. In kind it is biochemical. Details: polymerization of purified tubulin in solution: dose or concentration left out as unconfirmed. As to the method: Purified tubulin (approximately 7.5 mg protein) containing approximately 15% microtubule-associated proteins was obtained from Sigma and reconstituted in 0.1 M MES buffer, pH 6.8, 1 mM EGTA, 0.1 mM EDTA, 0.5 mM MgCl2, 1 mM DTT, 0.1 mM GTP, 1 mg/mL leupeptin, 1 mg/mL aprotinin, and 100 mg/mL sucrose as stabilizer. The reconstituted tubulin was incubated at 37° C. for 30 min in the presence of […] Peloruside A or […] paclitaxel. Samples […] were pipetted onto 400-mesh carbon- and Formvar-coated copper grids and left for 2 min at RT before blotting with filter paper. Each grid was stained with 5 mL of 1% uranyl acetate for 3 min at RT, then blotted with filter paper. Grids were air-dried overnight before examination in a Philips CM100 transmission electron microscope.
(B) Immunoblots following exposure to […] Peloruside A and […] paclitaxel for varying lengths of time. (C) Transmission electron micrograph of microtubules formed following treatment of purified soluble tubulin with […] Peloruside A for 30 min at 37° C. Scale bar (lower right)=500 nm.

Another series has as its system HeLa cells. In words: anti-metabolic activity, WST-1 reduction. Format: cell-based. Details: stimulation of WST-1 reduction: dose or concentration left out as unconfirmed. As to the method: The effect of Peloruside A and paclitaxel on superoxide production was determined using human peripheral blood neutrophils activated with […] N-formyl-met-leu-phe (fMLP) as described previously (Tan A. S., Berridge M. V., J. Immunol. Meth. (2000), 238, 59-68). In this microplate assay, the cell-impermeable tetrazolium salt, WST-1, is reduced to its soluble formazan and dye reduction measured at 450 nm as an initial rate over 10-20 min. Samples were equilibrated with cells for 3 min at 37° C. and the reaction initiated by adding fMLP. Measurement of anti-metabolic activity followed a similar microplate protocol except that HeLa cells were used instead of neutrophils, cells were not activated with fMLP, and the intermediate electron acceptor, 1-methoxy phenazine methosulfate at 25 mM, was included in the WST-1 reagent to facilitate detection of low potential electrons from the plasma membrane.

In the next series the test system is b-tubulin in HL-60 cells. Nature of the series: in situ tubulin polymerization, immunoblot of soluble and particulate fractions. In kind it is cell-based, human. To be noted: 5 h. The text has this:
A simple in situ cellular assay as described by Giannakakou P., Gussio R., Nogales E., Downing K. H., Zaharevitz D., Bollbuck B., Poy G., Sackett D., Nicolaou K. C., Fojo T., Proc. Nat. Acad. Sci. (USA) (2000), 97, 2904-2909 was used in which the shift in tubulin from depolymerized to polymerized forms was followed by electrophoresis and Western blotting of centrifuged particulate and cytosolic fractions. To summarize, 2×10^6 untreated and drug-exposed HL-60 cells were lysed by exposure for 5 min at 37° C. to […] of hypotonic buffer (1 mM MgCl2, 2 mM EGTA, 1% Nonidet P-40, 2 mM phenylmethylsulfonyl fluoride, 1 mg/mL aprotinin, 2 mg/mL pepstatin, and 20 mM Tris-HCl, pH 6.8) and the particulate fraction separated from the soluble cytosolic fraction by high speed centrifugation for 10 min in a bench-top centrifuge. Samples labeled ‘0 min’ received drug immediately before collection of the cells. The processing of the cells to the critical centrifugation step required approximately 30 min. The pellet was dissolved in […] of sample buffer (8 M urea, 4% CHAPS, 3 M thiourea, and 40 mM DTT). Twenty mL of loading buffer was added to each […] sample, the samples were vortexed and then boiled for 5 min. Twenty mL of each sample was loaded on an SDS/10% polyacrylamide gel and resolved by electrophoresis. b-Tubulin bands were identified by Western blotting using b-tubulin primary antibody ( 1/1000 dilution) following standard immunoblotting procedures with detection by enhanced chemiluminescence (Lumi-Light, Roche).
Scale bar (lower right)=500 nm.

Series [3] concerns SH-SY5Y (human neuroblastoma). In words: MTT cytotoxicity assay, 96 hours exposure. In kind it is cell-based. As to the method:
as §1
SH-SY5Y (human neuroblastoma)
as §2, §3

The test system of the next series is LLC-PK1 (pig kidney). Nature of the series: MTT cytotoxicity assay, 96 hours exposure. In kind it is cell-based. The following applies: LLC-PK1, 96 hours exposure. As to the method: as §1, §2, §3
The test system of a further series is P388 (murine leukemia). Nature of the series: MTT cytotoxicity assay, 96 hours exposure. In kind it is cell-based. The following applies: P388, 96 hours exposure. As to the method: as §1, §2, §3
In another series the test system is 32D (murine myeloid). In words: MTT cytotoxicity assay. Format: cell-based. As to the method: as §1, §2
Briefly, cell lines were maintained in Dulbecco's modified Eagle's medium: F12 medium (50:50) (Gibco) supplemented with 10% fetal calf serum (Gibco), […] Penicillin G, and […] streptomycin sulfate. […] […] Data were analysed with the SYSTAT statistical program using a non-linear model fit, and IC50 values were calculated using a Logit-Log plot.

The test system of a further series is K562 cells. In words: cellular morphology. The following applies: K562, 2 days exposure, 100 nM. Format: cell-based, human.
For series [4], the system named is P388 (Murine Leukemia) cells. Nature of the series: anti-tumor assay, P388 cell growth, MTT. In kind it is cell-based. To be noted: Mus musculus, 72 hours incubation, read-out: cytotoxic to P388 murine leukemia cells (IC50). As to the method: The bioactivity of peloruside A as an anti-tumor agent was determined by an anti-tumor assay. For the anti-tumor assay a 2-fold dilution series of the same of interest is incubated for 72 hours with P388 (Murine Leukemia) cells. The concentration of sample required to reduce the P388 cell growth by 50% (comparative to control cells) is determined using the absorbance values obtained with the yellow dye MTT tetrazollum is reduced by healthy cells to the purple colour MTT formazan. The result is expressed as an IC50 in ng/mL.

Turning to `CCC(/C=C(/C)C1C[C@H](OC)C[C@@H](O)C(C)(C)[C@]2(O)OC(CC(OC)C2O)C[C@H](OC)[C@@H](O)C(=O)O1)CO` (stereo partly shown) [Peloruside A], the LD50 came to 6.2 nM in series [1] (H441, 96 hours exposure); 14.9 nM in series [3] (96 hours exposure); 3.7 nM in the series with LLC-PK1 (pig kidney); 18 nM in the series on P388 (murine leukemia); 0.0078 µM with 32D (murine myeloid) (96 hours exposure); 1600 µM in the series with 32D (murine myeloid) (viability at 24 hours of exposure). Moreover, the “nuclei break up into small vessicles (nuclear blebbing)” value in series [1] (H441, comparators at their respective LD50s) is given as “nuclei of the cells were observed to break up into small vessicles”. In addition, in series [2], the lipophilicity entry is reported as “less lipophilic than paclitaxel”. For the same compound, in the series with purified tubulin (30 min, 37° C., electron microscopy), the “polymerization of purified tubulin in solution” value is listed as “polymerize in solution into typical, long, straight microtubules”. Besides, the “stability of induced microtubules” value in the series on purified tubulin (at 0C) was “stable”. For the same compound, the “stimulation of WST-1 reduction” value with HeLa cells came out at 20%. For the same compound, the “b-tubulin remaining in the soluble fraction” value in the series with b-tubulin in HL-60 cells (HL-60, 100 nM) is listed as “No detectable b-tubulin remained in the soluble fraction”. For the same compound, in the series with b-tubulin in HL-60 cells (HL-60, different concentrations), the “effect on proportion of soluble to polymerized tubulin” value is reported as “dose-dependent shifts of soluble tubulin to the particulate fraction”. For the same compound, the retraction of dendrites entry in [3] is “no retraction of dendrites was observed”. Besides, the micronuclei result with K562 cells was “multiple micronuclei were observed”. The IC50 in series [4] is roughly 0.01 µg/mL (≈ 0.0182 µM).
